Measurements published in patent publication US7820623B2 (priority 2006, dated 2010).
Where two headings read alike, the source gives them in different places. Bridge positions count the residues as written; N and C are the ends. Square brackets hold non-standard residues; d marks the D form. Peptide text beside a SMILES is read from it. 1Nal = N[C@@H](Cc1cccc2ccccc12)C(=O)O

Legend:
[1] = test system: thapsigargin-induced IFN-g production in human whole blood; assay type: cell-based
[2] = test system: thapsigargin-induced IL-2 production in human whole blood
[3] = read-out: Analogue Activity (IC50) WB/IFNg
[4] = read-out: Analogue Activity (IC50) WB/IL-2

Compound | IC50 [1, 3] | IC50 [2, 4] | IC50 ([1]; read-out: Average IC50 IFNg) | IC50 ([2]; read-out: Average IC50 IL-2) | further results
CC[C@H](C)[C@@H]1NC(=O)[C@H](CCCCN)NC(=O)[C@@H](NC(=O)[C@H](CCCCN)NC(=O)[C@@H](NC(=O)[C@H](CC(N)=O)NC(=O)[C@@H](NC(=O)[C@@H](NC(=O)[C@@H](NC(=O)CN)C(C)C)[C@@H](C)CC)[C@@H](C)CC)C(C)C)CSSC[C@@H]2NC(=O)[C@H](CCCCN)NC(=O)CNC(=O)[C@H](Cc3cccc4ccccc34)NC(=O)[C@H](CCCNC(=N)N)NC(=O)[C@H](CCSC)NC(=O)CNC(=O)[C@H](C)NC(=O)[C@H](CCCCN)NC(=O)[C@H](CCCCN)NC(=O)[C@@H]3CSSC[C@@H](C(=O)N[C@H](C(=O)N4CCC[C@H]4C(=O)N[C@@H](CCCCN)C(=O)O)[C@@H](C)O)NC(=O)[C@H](Cc4c[nH]cn4)NC(=O)[C@H](CSSC[C@H](NC(=O)[C@H](CCC(N)=O)NC(=O)[C@H](CCCNC(=N)N)NC(=O)[C@H](CO)NC1=O)C(=O)N[C@@H](CC(C)C)C(=O)N[C@@H](CCC(=O)O)C(=O)N1CCC[C@H]1C(=O)N3)NC(=O)[C@H](CCCCN)NC(=O)CNC(=O)[C@H](CC(N)=O)NC(=O)[C@H](CCSC)NC2=O [F25Nal] (H-GVIINVKCKISRQCLEPCKKAGMR[1Nal]GKCMNGKCHCTPK-OH; disulfide 8-28, 14-33, 18-35) | 1690 pM | 1730 pM | – | – | –
CC[C@H](C)[C@@H]1NC(=O)[C@H](CCCCN)NC(=O)[C@@H](NC(=O)[C@H](CCCCN)NC(=O)[C@@H](NC(=O)[C@H](CC(N)=O)NC(=O)[C@@H](NC(=O)[C@@H](NC(=O)[C@@H](NC(=O)CN)C(C)C)[C@@H](C)CC)[C@@H](C)CC)C(C)C)CSSC[C@@H]2NC(=O)[C@H](CCCCN)NC(=O)CNC(=O)[C@H](Cc3ccccc3)NC(=O)[C@H](CCCNC(=N)N)NC(=O)[C@H](CCSC)NC(=O)CNC(=O)[C@H](C)NC(=O)[C@H](CCCCN)NC(=O)[C@H](CCCCN)NC(=O)[C@@H]3CSSC[C@@H](C(=O)N[C@H](C(=O)N4CCC[C@H]4C(=O)N[C@@H](CCC(=O)O)C(=O)O)[C@@H](C)O)NC(=O)[C@H](Cc4c[nH]cn4)NC(=O)[C@H](CSSC[C@H](NC(=O)[C@H](CCC(N)=O)NC(=O)[C@H](CCCNC(=N)N)NC(=O)[C@H](CO)NC1=O)C(=O)N[C@@H](CC(C)C)C(=O)N[C@@H](CCC(=O)O)C(=O)N1CCC[C@H]1C(=O)N3)NC(=O)[C@H](CCCCN)NC(=O)CNC(=O)[C@H](CC(N)=O)NC(=O)[C@H](CCSC)NC2=O [K38E] (H-GVIINVKCKISRQCLEPCKKAGMRFGKCMNGKCHCTPE-OH; disulfide 8-28, 14-33, 18-35) | 713 pM | 526 pM | – | – | –
CC[C@H](C)[C@@H]1NC(=O)[C@H](Cc2cccc3ccccc23)NC(=O)[C@@H](NC(=O)[C@H](CCCCN)NC(=O)[C@@H](NC(=O)[C@H](CC(N)=O)NC(=O)[C@@H](NC(=O)[C@@H](NC(=O)[C@@H](NC(=O)CN)C(C)C)[C@@H](C)CC)[C@@H](C)CC)C(C)C)CSSC[C@@H]2NC(=O)[C@H](CCCCN)NC(=O)CNC(=O)[C@H](Cc3ccccc3)NC(=O)[C@H](CCCNC(=N)N)NC(=O)[C@H](CCSC)NC(=O)CNC(=O)[C@H](C)NC(=O)[C@H](CCCCN)NC(=O)[C@H](CCCCN)NC(=O)[C@@H]3CSSC[C@@H](C(=O)N[C@H](C(=O)N4CCC[C@H]4C(=O)N[C@@H](CCCCN)C(=O)O)[C@@H](C)O)NC(=O)[C@H](Cc4c[nH]cn4)NC(=O)[C@H](CSSC[C@H](NC(=O)[C@H](CCC(N)=O)NC(=O)[C@H](CCCNC(=N)N)NC(=O)[C@H](CO)NC1=O)C(=O)N[C@@H](CC(C)C)C(=O)N[C@@H](CCC(=O)O)C(=O)N1CCC[C@H]1C(=O)N3)NC(=O)[C@H](CCCCN)NC(=O)CNC(=O)[C@H](CC(N)=O)NC(=O)[C@H](CCSC)NC2=O [K9Nal] (H-GVIINVKC[1Nal]ISRQCLEPCKKAGMRFGKCMNGKCHCTPK-OH; disulfide 8-28, 14-33, 18-35) | 1220 pM | 1070 pM | – | – | –
CC[C@H](C)[C@@H]1NC(=O)[C@H](CCCCN)NC(=O)[C@@H](NC(=O)[C@H](CCCCN)NC(=O)[C@@H](NC(=O)[C@H](CC(N)=O)NC(=O)[C@H](Cc2cccc3ccccc23)NC(=O)[C@@H](NC(=O)[C@@H](NC(=O)CN)C(C)C)[C@@H](C)CC)C(C)C)CSSC[C@@H]2NC(=O)[C@H](CCCCN)NC(=O)CNC(=O)[C@H](Cc3ccccc3)NC(=O)[C@H](CCCNC(=N)N)NC(=O)[C@H](CCSC)NC(=O)CNC(=O)[C@H](C)NC(=O)[C@H](CCCCN)NC(=O)[C@H](CCCCN)NC(=O)[C@@H]3CSSC[C@@H](C(=O)N[C@H](C(=O)N4CCC[C@H]4C(=O)N[C@@H](CCCCN)C(=O)O)[C@@H](C)O)NC(=O)[C@H](Cc4c[nH]cn4)NC(=O)[C@H](CSSC[C@H](NC(=O)[C@H](CCC(N)=O)NC(=O)[C@H](CCCNC(=N)N)NC(=O)[C@H](CO)NC1=O)C(=O)N[C@@H](CC(C)C)C(=O)N[C@@H](CCC(=O)O)C(=O)N1CCC[C@H]1C(=O)N3)NC(=O)[C@H](CCCCN)NC(=O)CNC(=O)[C@H](CC(N)=O)NC(=O)[C@H](CCSC)NC2=O [I4Nal] (H-GVI[1Nal]NVKCKISRQCLEPCKKAGMRFGKCMNGKCHCTPK-OH; disulfide 8-28, 14-33, 18-35) | 1010 pM | 1090 pM | – | – | –
GVIANVKCKISRQCLEPCKKAGMRFGKCMNGKCHCTPK [Ala-4 (SEQ ID No: 1403)] | – | – | 87.3 pM | 111 pM | –
GVIINVKCKISRQCLAPCKKAGMRFGKCMNGKCHCTPK [Ala-16 (SEQ ID No: 1413)] | – | – | 101 pM | 101 pM | –
GVIINVKCKISPQCLKPCKDAGIRFGKCINGKCACTPK | – | – | 513 pM | 514 pM | –
CC[C@H](C)[C@@H]1NC(=O)[C@H](CCCCN)NC(=O)[C@@H](NC(=O)[C@H](CCCCN)NC(=O)[C@@H](NC(=O)[C@H](CC(N)=O)NC(=O)[C@@H](NC(=O)[C@@H](NC(=O)[C@@H](NC(=O)CN)C(C)C)[C@@H](C)CC)[C@@H](C)CC)C(C)C)CSSC[C@@H]2NC(=O)[C@H](CCCCN)NC(=O)CNC(=O)[C@H](Cc3ccccc3)NC(=O)[C@H](CCCNC(=N)N)NC(=O)[C@H](CCSC)NC(=O)CNC(=O)[C@H](CCCNC(=N)N)NC(=O)[C@H](CCCCN)NC(=O)[C@H](CCCCN)NC(=O)[C@@H]3CSSC[C@@H](C(=O)N[C@H](C(=O)N4CCC[C@H]4C(=O)N[C@@H](CCCCN)C(=O)O)[C@@H](C)O)NC(=O)[C@H](Cc4c[nH]cn4)NC(=O)[C@H](CSSC[C@H](NC(=O)[C@H](CCC(N)=O)NC(=O)[C@H](CCCNC(=N)N)NC(=O)[C@H](CO)NC1=O)C(=O)N[C@@H](CC(C)C)C(=O)N[C@@H](CCC(=O)O)C(=O)N1CCC[C@H]1C(=O)N3)NC(=O)[C@H](CCCCN)NC(=O)CNC(=O)[C@H](CC(N)=O)NC(=O)[C@H](CCSC)NC2=O [A21R] (H-GVIINVKCKISRQCLEPCKKRGMRFGKCMNGKCHCTPK-OH; disulfide 8-28, 14-33, 18-35) | 149 pM | 90 pM | – | – | –
CC[C@H](C)[C@@H]1NC(=O)[C@H](CCCCN)NC(=O)[C@@H](NC(=O)[C@H](CCCCN)NC(=O)[C@@H](NC(=O)[C@H](CC(N)=O)NC(=O)[C@@H](NC(=O)[C@@H](NC(=O)[C@@H](NC(=O)CN)C(C)C)[C@@H](C)CC)[C@@H](C)CC)C(C)C)CSSC[C@@H]2NC(=O)[C@H](CCCCN)NC(=O)CNC(=O)[C@H](Cc3ccccc3)NC(=O)[C@H](CCCNC(=N)N)NC(=O)[C@H](CCSC)NC(=O)[C@H](CCC(=O)O)NC(=O)[C@H](C)NC(=O)[C@H](CCCCN)NC(=O)[C@H](CCCCN)NC(=O)[C@@H]3CSSC[C@@H](C(=O)N[C@H](C(=O)N4CCC[C@H]4C(=O)N[C@@H](CCCCN)C(=O)O)[C@@H](C)O)NC(=O)[C@H](Cc4c[nH]cn4)NC(=O)[C@H](CSSC[C@H](NC(=O)[C@H](CCC(N)=O)NC(=O)[C@H](CCCNC(=N)N)NC(=O)[C@H](CO)NC1=O)C(=O)N[C@@H](CC(C)C)C(=O)N[C@@H](CCC(=O)O)C(=O)N1CCC[C@H]1C(=O)N3)NC(=O)[C@H](CCCCN)NC(=O)CNC(=O)[C@H](CC(N)=O)NC(=O)[C@H](CCSC)NC2=O [G22E] (H-GVIINVKCKISRQCLEPCKKAEMRFGKCMNGKCHCTPK-OH; disulfide 8-28, 14-33, 18-35) | 164 pM | 109 pM | – | – | –
CC[C@H](C)[C@@H]1NC(=O)[C@H](CCCCN)NC(=O)[C@@H](NC(=O)[C@H](CCCCN)NC(=O)[C@@H](NC(=O)[C@H](CC(N)=O)NC(=O)[C@@H](NC(=O)[C@H](CCC(=O)O)NC(=O)[C@@H](NC(=O)CN)C(C)C)[C@@H](C)CC)C(C)C)CSSC[C@@H]2NC(=O)[C@H](CCCCN)NC(=O)CNC(=O)[C@H](Cc3ccccc3)NC(=O)[C@H](CCCNC(=N)N)NC(=O)[C@H](CCSC)NC(=O)CNC(=O)[C@H](C)NC(=O)[C@H](CCCCN)NC(=O)[C@H](CCCCN)NC(=O)[C@@H]3CSSC[C@@H](C(=O)N[C@H](C(=O)N4CCC[C@H]4C(=O)N[C@@H](CCCCN)C(=O)O)[C@@H](C)O)NC(=O)[C@H](Cc4c[nH]cn4)NC(=O)[C@H](CSSC[C@H](NC(=O)[C@H](CCC(N)=O)NC(=O)[C@H](CCCNC(=N)N)NC(=O)[C@H](CO)NC1=O)C(=O)N[C@@H](CC(C)C)C(=O)N[C@@H](CCC(=O)O)C(=O)N1CCC[C@H]1C(=O)N3)NC(=O)[C@H](CCCCN)NC(=O)CNC(=O)[C@H](CC(N)=O)NC(=O)[C@H](CCSC)NC2=O [I3E] (H-GVEINVKCKISRQCLEPCKKAGMRFGKCMNGKCHCTPK-OH; disulfide 8-28, 14-33, 18-35) | 160 pM | 120 pM | – | – | –
GVAINVKCKISRQCLEPCKKAGMRFGKCMNGKCHCTPK [Ala-3 (SEQ ID No: 1402)] | – | – | 99.2 pM | 88.3 pM | –
E16K, K20D, H34A (GVIINVKCKISRQCLKPCKDAGMRFGKCMNGKCACTPK) | – | – | – | – | IC50 ([1]; read-out: WB/IFNg (IC50)): 26600 pM; IC50 ([2]; read-out: WB/IL-2 (IC50)): 65500 pM
